One block for each compound: values may come before it.
Tests used:
WIL-FL F98D [1] = settings: Figure S5
plasma proteins = assay type: in vitro ADME, human or mouse; settings: 2 μM in plasma, dialysis 4 h, 37 °C
WIL-FL* T46L/F49Y = WIL-FL* T46L/F49Y (Homo sapiens, UniProt P01721, form not given/K101C/T66L); settings: WIL-FL T46L/F49Y EC50
[2] = target: WIL-FL* (fluorescein-labeled WIL-FL LC dimer) (Homo sapiens, UniProt P01721, form not given/K101C); experiment: Proteolysis-coupled fluorescence polarization; assay type: biochemical; settings: for potency (EC50) increase compared to 1: WIL-FL* EC50 ratio to compound 1
[3] = system: WIL-FL* (fluorescein-labeled WIL-FL LC dimer); experiment: Proteolysis-coupled fluorescence polarization; assay type: biochemical, human; settings: assay not given; data in Tables S2-S6 of the supplement
WIL-FL F98D [4] = settings: cited from earlier work

Sequence of WIL-FL* (fluorescein-labeled WIL-FL LC dimer) (Homo sapiens, UniProt P01721, form not given/K101C) (P01721 20-117 K101C, form open): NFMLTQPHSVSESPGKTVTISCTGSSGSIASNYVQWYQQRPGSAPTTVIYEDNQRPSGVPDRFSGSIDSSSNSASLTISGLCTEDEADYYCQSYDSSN
Sequence of WIL-FL* (fluorescein-labeled WIL-FL LC dimer) (P01721 20-117 K101C, form open): as above
Sequence of WIL-FL* T46L/F49Y (P01721 20-117 T66L/K101C, form open): as the sequence (P01721 20-117 K101C, form open) above, with T47L counted along it

proteinase K resistance provided to WIL-FL F98D (WIL-FL F98D [1]): no appreciable proteinase K resistance
Compound: Cc1c(CCN2CC3(CCN(c4nccn5ccnc45)CC3)NC2=O)c(=O)oc2cc(O[C@H](C)c3ccccc3)ccc12 [(R)-83, (R)-8-(imidazo[1,2-a]pyrazin-8-yl)-3-(2-(4-methyl-2-oxo-7-(1-phenylethoxy)-2H-chromen-3-yl)ethyl)-1,3,8-triazaspiro[4.5]decan-2-one]

Compound: Cc1cc(=O)oc2cc(OCC(C)c3ccccc3)ccc12 (centres unmarked) [Compound 57, 4-methyl-7-(2-phenylpropoxy)-2H-chromen-2-one]
plasma protein binding (in words) (plasma proteins): very high plasma protein binding
potency increase relative to 2 (WIL-FL* T46L/F49Y): 9 fold

potency (EC50) increase compared to 1 [2]: ≤ 8 fold
Compound: CCN(CC)c1ccc2c(C)c(CCOC(=O)NCc3cccnc3)c(=O)oc2c1 [Compound 20, 2-(7-(diethylamino)-4-methyl-2-oxo-2H-chromen-3-yl)ethyl (pyridin-3-ylmethyl)carbamate]

Compound: CCN(CC)c1ccc2c(C)c(CCOC(=O)NCc3cccc(-c4c[nH]cn4)c3)c(=O)oc2c1 [Compound 26, 2-(7-(diethylamino)-4-methyl-2-oxo-2H-chromen-3-yl)ethyl (3-(1H-imidazol-4-yl)benzyl)carbamate]
potency (EC50) increase compared to 1 [2]: 42 fold

proteinase K resistance provided to WIL-FL F98D (WIL-FL F98D [1]): no appreciable proteinase K resistance
Compound: CCN(CC)c1ccc2c(C)c(CCOC(=O)NCc3cccc(-c4ccc[nH]c4=O)c3)c(=O)oc2c1 [Compound 27, 2-(7-(diethylamino)-4-methyl-2-oxo-2H-chromen-3-yl)ethyl (3-(2-oxo-1,2-dihydropyridin-3-yl)benzyl)carbamate]

potency (EC50) increase compared to 1 [2]: up to 22 fold
Compound: CCN(CC)c1ccc2c(C)c(CCOC(=O)NCc3cccc(NC(C)=O)c3)c(=O)oc2c1 [Compound 23, 2-(7-(diethylamino)-4-methyl-2-oxo-2H-chromen-3-yl)ethyl (3-acetamidobenzyl)carbamate]

Compound: CCN(CC)c1ccc2c(C)c(CCOC(=O)N(C)CCc3cccnc3)c(=O)oc2c1 [Compound 22, 2-(7-(diethylamino)-4-methyl-2-oxo-2H-chromen-3-yl)ethyl methyl(2-(pyridin-3-yl)ethyl)carbamate]
reduced potency compared to the secondary carbamate 21 ([2]; WIL-FL* EC50): 70 fold

stabilizer potency (qualitative statement in text) [3]: slightly increased their potency
Compound: Cc1c(CN2CCOCC2)c(=O)oc2cc(OCC(C)c3ccccc3)ccc12 (centres unmarked) [Compound 63, 4-methyl-3-(morpholinomethyl)-7-(2-phenylpropoxy)-2H-chromen-2-one]

potency (EC50) increase compared to 1 [2]: up to 22 fold
Compound: CCN(CC)c1ccc2c(C)c(CCOC(=O)NCc3cccc(C(N)=O)c3)c(=O)oc2c1 [Compound 25, 2-(7-(diethylamino)-4-methyl-2-oxo-2H-chromen-3-yl)ethyl (3-carbamoylbenzyl)carbamate]

Compound: CCN(CC)c1ccc2c(C)cc(=O)oc2c1 [Compound 1]
binding to LC with F98D mutation (WIL-FL F98D [4]): obviates binding

potency (EC50) increase compared to 1 [2]: ≤ 8 fold
Compound: CCN(CC)c1ccc2c(C)c(CCOC(=O)NCCc3cccnc3)c(=O)oc2c1 [Compound 21, 2-(7-(diethylamino)-4-methyl-2-oxo-2H-chromen-3-yl)ethyl (2-(pyridin-3-yl)ethyl)carbamate]

potency (EC50) increase compared to 1 [2]: ≤ 8 fold
Compound: CCN(CC)c1ccc2c(C)c(CCOC(=O)NCC3CCCNC3)c(=O)oc2c1 (centres unmarked) [Compound 18, 2-(7-(diethylamino)-4-methyl-2-oxo-2H-chromen-3-yl)ethyl (piperidin-3-ylmethyl)carbamate]

stabilizer potency (qualitative statement in text) [3]: slightly increased their potency
Compound: Cc1c(CN2CCOCC2)c(=O)oc2cc(OC(C)c3ccccc3)ccc12 (centres unmarked) [Compound 62, 4-methyl-3-(morpholinomethyl)-7-(1-phenylethoxy)-2H-chromen-2-one]

From publication PMC8428256 (Journal of medicinal chemistry, 2021)
